Laboratory results taken from US20250257064A1, “TRIFLUOROMETHYL-SUBSTITUTED SULFONAMIDE AS BCL-2-SELECTIVE INHIBITOR” (Chia Tai Tianqing Pharmaceutical Group Co., Ltd., priority 2018, published 2025).

What was measured:
[1] = tested on: human platelet Caspase-3 activity; assay: Human platelet toxicity experiment (Caspase-3 activity assay); type: cell-based; settings: compound concentration 1 μM, 90 min; data normalized, reference ABT-199
Experimental: Experimental Example 6: Human Platelet Toxicity Experiment (Caspase-3 Activity Assay)
10 mL of human whole blood was collected using a heparin sodium anticoagulation tube, mixed well by turning upside down, and centrifuged at 90 g for 10 min. The supernatant was collected and centrifuged at 1950 g for 10 min. The supernatant was discarded, and the residue was resuspended in 4 mL of PBS, and centrifuged at 1190 g for 5 min, and the procedure was repeated once. The supernatant was discarded, and the platelets were resuspended in PBS and adjusted to the density of 2-3×10^8 cells/mL. Cells were seeded into a 96-well plate at a density of 2-3×10^7 cells/mL and at 100 μL/well. 50 μL of control buffer was added to each negative control well, and 50 μL of compound at a corresponding concentration was added to each compound well, so that the final concentration of the compound was 2.5 μM, 2 μM, 1 μM or 0.5 μM, followed by incubation in an incubator at 37° C. for 90 min. The liquids in the 96-well plate were transferred to 1.5 mL centrifuge tubes, respectively. The tubes were centrifuged at 4° C. and 6000 g for 5 min, and placed on ice for later use after the supernatant was discarded. 5× lysis buffer was diluted into 1× lysis buffer with water in the kit, and protease inhibitor cocktail was added at a 1:200 ratio to prepare a lysis mixture for later use. 40 μL of lysis mixture was added to each centrifuge tube, and the platelets at the bottom were resuspended using a pipette. The suspension was lysed on ice for 15-20 min and centrifuged at 4° C. and 14,000 g for 10 min. The sample was sub-packaged for later use. 10× assay buffer was diluted into 1× assay buffer with water in the kit, and substrate Ac-DEVD-AMC was added at a 1:600 ratio to prepare a reaction mixture. 5 μL of assay buffer and 40 μL of reaction mixture were added to each blank control well. 5 μL of control platelet lysate and 40 μL of reaction mixture were added to each negative control well. 5 μL of platelet lysate and 40 μL of reaction mixture were added to each compound well. In this procedure, 40 μL of reaction mixture was added at last. The resulting mixture was mixed gently, and the plate was read by a PE Envision multi-functional microplate reader (excitation: 360 nm, emission: 460 nm) once every 10 min for 6 times. Caspase-3 activity was determined based on the intensity of the released AMC fluorescence, that is the slope of the fitted line to which each well corresponds represents Caspase activity (all data were normalized and the reference was ABT-199).

[2] = In vitro stability in rat liver microsomes; type: in vitro ADME; settings: 1 μM
Experimental: Experimental Example 3: In Vitro Stability in Liver Microsome
300 μL of the final incubation system contains 30 μL of liver microsomes (protein concentration: 5 mg/mL), 30 μL of NADPH+MgCl2, 3 μL of the test compound (in acetonitrile), and 237 μL of PBS buffer (pH 7.4), wherein the proportion of the organic solvent (acetonitrile) is 1% (volume ratio). Two duplicate samples were prepared for each specie (mouse, rat and human), and each sample was 0.3 mL. Each tube which was added with 270 μL of a mixed solution of substrate and enzyme, and NADPH, after being pre-incubated at 37° C. for 5 min, was added with 30 μL of NADPH+MgCl2 and mixed. Then 50 μL of the mixture was taken at 0 min, 15 min, 30 min and 60 min, and added with 300 μL of glacial acetonitrile containing an internal standard to terminate the reaction.
50 μL of the incubated sample was added with 300 μL of glacial acetonitrile containing an internal standard (20 ng/mL diazepam) for precipitation, vortexed for 5 min, and centrifuged (13,000 rpm, 20° C.) for 10 min. 70 μL of supernatant was taken and diluted with 70 μL of ultrapure water. After being mixed well, 1 μL of the resulting sample was injected for analysis.

BCL-2/BAK = target: T1, BCL-2/BAK (Homo sapiens, UniProt P10415); assay: Screening on inhibitory activity for BCL-2/BAK binding (Cisbio HTRF kit)
T1 construct: purchased Cisbio
T1 sequence (P10415 whole entry, species assumed): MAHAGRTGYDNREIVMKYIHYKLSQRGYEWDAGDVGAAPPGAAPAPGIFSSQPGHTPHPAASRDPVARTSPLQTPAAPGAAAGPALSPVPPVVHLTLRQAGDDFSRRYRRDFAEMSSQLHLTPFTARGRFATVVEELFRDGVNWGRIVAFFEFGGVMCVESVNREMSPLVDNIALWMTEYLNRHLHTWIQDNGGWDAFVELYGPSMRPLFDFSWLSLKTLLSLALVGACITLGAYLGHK
In short: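 HTRF competition assay: Tag1-BCL-2 and Tag2-BAK working dilutions were 5 nM and 120 nM. Compound (200–0.0488 nM final, 4-fold, 7 points, duplicates) was incubated with the proteins for 15 min at 25 °C, then with Eu-cryptate/XL665 antibodies for ≥2 h at 25 °C. IC50 was derived from a four-parameter fit.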

BCL-XL/BAK = target: T2, BCL-XL/BAK (Homo sapiens, UniProt Q07817); assay: Screening on inhibitory activity for BCL-XL/BAK binding (Cisbio HTRF kit)
T2 construct: purchased Cisbio
T2 sequence (Q07817 whole entry, species assumed): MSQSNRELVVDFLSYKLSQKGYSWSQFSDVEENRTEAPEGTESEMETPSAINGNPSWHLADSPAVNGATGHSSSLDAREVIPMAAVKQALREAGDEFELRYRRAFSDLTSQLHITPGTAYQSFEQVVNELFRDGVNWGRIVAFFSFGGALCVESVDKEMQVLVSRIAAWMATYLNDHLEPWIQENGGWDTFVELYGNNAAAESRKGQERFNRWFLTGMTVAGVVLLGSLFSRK
In short: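 Tag1-BCL-XL and Tag2-BAK (2 nM and 80 nM before mixing) were combined with compounds at final 2000–0.488 nM (4-fold, 7 points, duplicates) for 15 min at 25° C. Eu3+ anti-Tag1 and XL665 anti-Tag2 were then added for ≥2 h at 25° C. HTRF (620/665 nm) gave IC50 by four-parameter fit.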

Compound	human platelet Caspase-3 activity, Slope [1]	Rat Residual content after 60 min (%) [2]	IC50 (BCL-2/BAK)	IC50 (BCL-XL/BAK)
CC1(C)CCC(CN2CCN(c3ccc(C(=O)NS(=O)(=O)c4ccc(NCC5CCOCC5)c([N+](=O)[O-])c4)c(Oc4cnc5[nH]ccc5c4)c3)CC2)=C(c2ccc(C(F)(F)F)cc2Cl)C1 [Compound 1-1, 4-(4-{[2-(2-chloro-4-trifluoromethylphenyl)-4,4-dimethylcyclohex-1-enyl]methyl}-piperazin-1-yl)-N-({3-nitro-4-[(tetrahydro-2H-pyran-4-ylmethyl)amino]phenyl}sulfonyl)-2-(1H-pyrrolo[2,3-b]pyridin-5-yloxy)-benzamide]	0.67	88.4%	2.7 nM	133 nM
CC1(C)CCC(CN2CCN(c3ccc(C(=O)NS(=O)(=O)c4ccc(NC[C@H]5COCCO5)c([N+](=O)[O-])c4)c(Oc4cnc5[nH]ccc5c4)c3)CC2)=C(c2ccc(C(F)(F)F)cc2Cl)C1 [Compound 8-1]	0.59	90.9%	2.8 nM	155 nM
